In patent US20240238195A1, “METHODS AND COMPOSITIONS FOR INHIBITING A NOXIOUS INSULT” (priority 2018, published 2024):
“Also recorded” adds a separate entry of the source.

Columns and labels:
[1] = system: sheep left ventricle myocardium; assay: Myocardial ischaemia-reperfusion in sheep (Evan's blue / TTC staining); format: in vivo
HIF-1α [2] = assay: HIF-1α protein expression in ZnCl2-perfused human kidney tissue (Western Blot)
Description: The blood supply to the excised tissue was provided by the renal artery into which the ZnCl2 solution was administered. In an initial study a 25% increase in HIF-1α expression in normal human kidney perfused with Zn compared to saline perfused tissue was observed.

sheep kidneys = assay: Renal ischaemia-reperfusion injury in sheep (unilateral nephrectomy, 60 min renal ischaemia); format: in vivo; settings: for ischaemic burden (area under curve, serum creatinine and serum urea): 0.5 mg/kg dosed at 24 hours and 4 hours pre-ischaemia, compared to controls and single 24 hr or 4 hr dosing; for inhibition of ischaemia-reperfusion injury, as measured by serum creatinine and urea levels / adverse effects of ischaemia-reperfusion in sheep kidneys (trend towards higher serum creatinine and urea levels): compared to controls
Description: (§1) Following the 4 hour injection, day 0 blood samples were taken.
Controls (n=4) received a unilateral nephrectomy and were administered saline at 24 hours and 4 hours prior to surgery.
Another group of sheep (n=1) received the Flavonoid based antioxidant (3′,4′ dihydroxyflavonol) at 6.6 mg/kg of body weight 1 hours prior to surgery.
Sheep were anaesthetised prior to surgery with intravenous sodium thiopentone (15 mg/kg) for endotracheal intubation (cuffed tube size 10). Maintenance of anaesthesia was carried out by means of oxygen/air/isoflurane (1.5-2.0%). Fractional inspired oxygen was altered to maintain PaO2 at approximately 100 mmHg, and ventilation was controlled to maintain PaCO2 at approximately 40 mmHg.
Following general anaesthesia, the right kidney was removed. A flow probe (4 mm) was implanted into the left kidney and the renal hilum (arteries and veins) supplying blood to the kidney were clamped using a vascular clamp for 60 minutes. […] General anaesthesia was then reversed and the sheep were allowed to recover. Renal blood flow was measured, blood samples were taken daily from the sheep over a 1-week period and the level of urea and creatinine was determined. Blood samples were collected into lithium heparin tubes (Microtainer, Becton-Dickinson). Blood samples were centrifuged and aliquots stored at −20° C. till analysis for creatinine and urea by the Clinical Trials Department, Austin Pathology, Heidelberg, Australia. Creatinine and urea in the blood serum samples were measured on a fully automated Roche Cobas 8000 c702 analyser. The kinetic colorimetric assay for creatinine determination is based on the Jaffé method. The kinetic colorimetric assay for urea is based on hydrolyzation of Urea to ammonium catalysed by urease followed by reaction of ammonium with 2-oxoglutarate in the presence of glutamate dehydrogenase and the coenzyme NADH. The rate of decrease in the NADH concentration is directly proportional to the urea concentration in the specimen and is measured photometrically.
As 0.5 mg/kg had been established as an effective dose to inhibit renal ischemia-reperfusion injury, the dosing experiments above were repeated to investigate the effect of multiple dosing. Sheep were subjected to uninephrectomy and 60 min of renal ischaemia followed by reperfusion. Serum creatinine and serum urea levels were measured before Zn pre-treatment (baseline), before ischaemia (Day 0) and for 7 days after reperfusion. […] Data are expressed as mean±SEM values (n=4, except 24 hr only group, n=1).

HIF-2α [3] = assay: HIF-2α protein expression in HK-2 cells (Western blot); format: cell-based, human; settings: 50 μM ZnCl2, Western blot, 4 hours
Text: (§2) Zn stimulated HIF1α in HK-2 cells.

HIF-3α [4] = assay: HIF-3α protein expression in ACHN cells (Western blot); format: cell-based, human; settings: 50 μM ZnCl2, Western blot
Text: (§3) Zn stimulated HIF1α in ACHN cells.

HIF-1α [5] = assay: HIF-1α protein expression in ACHN cells (Western blot); format: cell-based, human; settings: 50 μM ZnCl2, Western blot, at 4 hours following exposure, vs controls
Text: as §3

[6] = Tolerability of intravenous ZnCl2 in sheep; format: in vivo; settings: 0.1 to 2 mg/kg of body weight i.v. at 24 hours and 4 hours prior to surgery; preliminary results
Description: as §1

HIF-2α [7] = assay: HIF-2α protein expression in ACHN cells (Western blot); format: cell-based, human; settings: 50 μM ZnCl2, Western blot, 4 hours
Text: as §3

pAKT [8] = assay: Phosphorylation of AKT in HK-2 cells (Western blot); format: cell-based, human; settings: ZnCl2 for 4 hours
Text: as §2

HIF-3α [9] = assay: HIF-3α protein expression in HK-2 cells (Western blot); format: cell-based, human; settings: 50 μM ZnCl2, Western blot
Text: as §2

pAKT [10] = assay: Phosphorylation of AKT in ACHN cells (Western blot); format: cell-based, human; settings: ZnCl2 for 4 hours
Text: as §3

HIF-1α [11] = assay: HIF-1α protein expression in HK-2 cells (Western blot); format: cell-based, human; settings: 50 μM ZnCl2, Western blot, at 4 hours following exposure, vs controls
Text: as §2

rats [12] = settings: 191 mg zinc/kg/day as zinc acetate in drinking water for 3 months; cited from earlier work
rats [13] = settings: cited from earlier work
mice = settings: cited from earlier work
ferrets = settings: 390 mg zinc/kg of body weight per day as zinc oxide in the diet for 3-13 days; cited from earlier work
humans = settings: cited from earlier work
[14] = 0.1 mg/kg of body weight i.v. at 24 hours and 4 hours prior to 60 min ischaemia
[15] = 0.5 mg/kg of body weight i.v. at 24 hours and 4 hours prior to 60 min ischaemia

Which results are given for `[Cl-].[Cl-].[Zn+2]` [ZnCl2, zinc chloride]?
infarct in the area of myocardium at risk ([1]; dual doses of 0.5 mg/kg ZnCl2 at 24 hours and 4 hours prior to 1 hour ischemia and 3 hour reperfusion): no histological signs of an infarct; white (infarcted) areas after TTC staining of left ventricle rings ([1]; dual doses of 0.5 mg/kg ZnCl2 at 24 hours and 4 hours prior to myocardial ischaemia, compared to untreated sheep, 0.5 mg/kg): very little white staining; also recorded: Absence of white areas; increase in HIF-1α expression (HIF-1α [2]; 50 μM ZnCl2 perfused via segmental renal artery, compared to saline perfused tissue, initial study): 25%; HIF-1α protein expression in human kidney tissue (HIF-1α [2]; zinc chloride preconditioning (50 μM perfusion), Western Blot): enhanced; serum creatinine levels when compared to controls (sheep kidneys; [14]): marked reduction; serum urea levels when compared to controls (sheep kidneys; [14]): marked reduction; ischaemic burden (area under curve, serum creatinine and serum urea) (sheep kidneys): significantly (p<0.05) reduced; ischaemic burden (area under curve, serum creatinine and serum urea) (sheep kidneys; listed as zinc): reduced significantly; serum creatinine levels when compared to controls (sheep kidneys; [15]): marked reduction; serum urea levels when compared to controls (sheep kidneys; [15]): marked reduction; reduction of ischaemic burden (AUC values for serum creatinine and serum urea) (sheep kidneys; 0.5 mg/kg zinc, compared to control animals): ~70%; inhibition of ischaemia-reperfusion injury, as measured by serum creatinine and urea levels (sheep kidneys; 1.0 mg/kg of body weight): failed to inhibit; inhibition of ischaemia-reperfusion injury, as measured by serum creatinine and urea levels (sheep kidneys; 2.5 mg/kg of body weight): failed to inhibit; adverse effects of ischaemia-reperfusion in sheep kidneys (trend towards higher serum creatinine and urea levels) (sheep kidneys; 2.5 mg/kg of body weight, listed as ZnCl): appeared to worsen; adverse effects of ischaemia-reperfusion in sheep kidneys (trend towards higher serum creatinine and urea levels) (sheep kidneys; 2.5 mg/kg of body weight, listed as zinc): worsened renal function; inhibition of ischaemia-reperfusion injury, as measured by serum creatinine and urea levels (sheep kidneys; 10.0 mg/kg of body weight): failed to inhibit; adverse effects of ischaemia-reperfusion in sheep kidneys (trend towards higher serum creatinine and urea levels) (sheep kidneys; 10.0 mg/kg of body weight, listed as ZnCl): appeared to worsen; adverse effects of ischaemia-reperfusion in sheep kidneys (trend towards higher serum creatinine and urea levels) (sheep kidneys; 10.0 mg/kg of body weight, listed as zinc): worsened renal function; renal function following ischaemia-reperfusion injury, as determined by serum creatinine and serum urea levels (sheep kidneys; greater than or equal to 1 mg/kg of body weight, intravascular): did not improve renal function; creatinine rise over time (sheep kidneys; two doses of 0.5 mg/kg at 24 and 4 hr prior to ischaemia, compared to single dose at either 24 hr or 4 hr, p<0.05, 0.5 mg/kg): significantly (p<0.05) reduced; HIF-2α protein expression (HIF-2α [3]): increase; HIF-2α protein expression (HIF-2α [3]; listed as zinc): stimulated; HIF-3α protein expression (HIF-3α [4]): not; HIF-1α protein expression (HIF-1α [5]): increase; HIF-1α protein expression (HIF-1α [5]; listed as Zinc chloride): enhanced; HIF-1α protein expression (HIF-1α [5]; listed as Zn): stimulated; HIF-1α protein expression (HIF-1α [5]; listed as zinc): stimulates; tolerability / adverse effects [6]: without any adverse effects; HIF-2α protein expression (HIF-2α [7]): increase; HIF-2α protein expression (HIF-2α [7]; listed as zinc): stimulated; phosphorylation of AKT (pAKT [8]): stimulated phosphorylation; HIF-3α protein expression (HIF-3α [9]): not; phosphorylation of AKT (pAKT [10]): stimulated phosphorylation; HIF-1α protein expression (HIF-1α [11]): increase; HIF-1α protein expression (HIF-1α [11]; listed as Zinc chloride): enhanced; HIF-1α protein expression (HIF-1α [11]; listed as Zn): stimulated; HIF-1α protein expression (HIF-1α [11]; listed as zinc): stimulates

For `O=c1c(O)c(-c2ccc(O)c(O)c2)oc2ccccc12` [antioxidant, 3′,4′ dihydroxyflavonol, reference compound], which “decrease of ischaemic burden (AUC values for serum creatinine and serum urea)” value (sheep kidneys; antioxidant 6.6 mg/kg of body weight 1 hours prior to surgery (n=1)) is on record?
The value was 50%.

For `CC(=O)[O-].CC(=O)[O-].[Zn+2]` [zinc acetate], which mortality (rats [12]) is on record?
Its mortality is “Mortality has also been observed”.

What about the “relative lethality (LD50 ranking)” value (rats [13]) of the same compound?
The value was “most lethal compound tested”.

What about the “relative lethality (LD50 ranking)” value (mice) of the same compound?
The value was “most lethal compound”.

With `[O]=[Zn]` [zinc oxide] as the compound, how does the “lethality (ferrets dead of ferrets dosed)” value (ferrets) read?
Its value is 3 of 3.

Which toxic effects (humans; about 2,000-4,000 mg/day of zinc gluconate) does the source give for zinc gluconate here?
Its toxic effects is “anemia (consistent with zinc-induced copper deficiency), severe nephrosis, nausea, vomiting, dehydration, electrolyte imbalances, dizziness, lethargy and incoordination, epigastric pain and abdominal pain”.

With zinc sulfate as the compound, how does the “outcome of zinc overdose” value (humans; oral ingestion of zinc sulfate in large amounts (≥30,000 mg)) read?
The value was “can result in death”.
